Some results are limits rather than exact numbers.

These results are taken from patent US6855730B2, “3-methylidenyl-2-indolinone modulators of protein kinase” (Sugen, Inc., priority 1998, dated 2005).

In one test the target is T1, PDGFR-β (Homo sapiens, UniProt P09619).
T1 construct: host or cells: NIH 3T3
The experiment in a line: Biochemical PDGFR assay (ELISA, PDGFR-β expressing NIH 3T3 cell lysate). Conditions: read-out: bio PDGF IC50. The essentials: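 PDGFR-β from NIH 3T3 cell lysate captured on anti-PDGFR (28D4C10)-coated plates; compound preincubated 30 min, then 20 μM ATP kinase reaction 30 min at room temperature, stopped with EDTA. Phosphotyrosine detected by anti-phosphotyrosine antibody, peroxidase conjugate and ABTS/H2O2, read at 410 nm.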
(In general: An ELISA detects its analyte on a solid surface through an enzyme-linked reagent.)

For test [1], the target named is Myc-GyrB-FGFR fusion protein (Homo sapiens, UniProt P11362). Kind of test: Biochemical FGFR assay (ELISA). Conditions: read-out: bio fgfR1 IC50.
Sequence of Myc-GyrB-FGFR fusion protein (P11362 478-767 limits assumed): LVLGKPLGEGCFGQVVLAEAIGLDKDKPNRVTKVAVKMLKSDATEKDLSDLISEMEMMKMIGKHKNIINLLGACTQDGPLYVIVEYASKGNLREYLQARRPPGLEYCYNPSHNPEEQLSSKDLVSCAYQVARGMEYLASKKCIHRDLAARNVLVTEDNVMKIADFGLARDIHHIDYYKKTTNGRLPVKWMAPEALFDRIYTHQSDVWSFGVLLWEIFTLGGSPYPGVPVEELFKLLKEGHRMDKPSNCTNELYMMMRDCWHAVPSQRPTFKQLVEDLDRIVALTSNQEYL
In the next test the target is T2, human flk-1 (Homo sapiens, UniProt P35968).
T2 construct: host or cells: Flk-1/NIH cells (NIH fibroblasts)
T2 sequence (P35968 20-1356): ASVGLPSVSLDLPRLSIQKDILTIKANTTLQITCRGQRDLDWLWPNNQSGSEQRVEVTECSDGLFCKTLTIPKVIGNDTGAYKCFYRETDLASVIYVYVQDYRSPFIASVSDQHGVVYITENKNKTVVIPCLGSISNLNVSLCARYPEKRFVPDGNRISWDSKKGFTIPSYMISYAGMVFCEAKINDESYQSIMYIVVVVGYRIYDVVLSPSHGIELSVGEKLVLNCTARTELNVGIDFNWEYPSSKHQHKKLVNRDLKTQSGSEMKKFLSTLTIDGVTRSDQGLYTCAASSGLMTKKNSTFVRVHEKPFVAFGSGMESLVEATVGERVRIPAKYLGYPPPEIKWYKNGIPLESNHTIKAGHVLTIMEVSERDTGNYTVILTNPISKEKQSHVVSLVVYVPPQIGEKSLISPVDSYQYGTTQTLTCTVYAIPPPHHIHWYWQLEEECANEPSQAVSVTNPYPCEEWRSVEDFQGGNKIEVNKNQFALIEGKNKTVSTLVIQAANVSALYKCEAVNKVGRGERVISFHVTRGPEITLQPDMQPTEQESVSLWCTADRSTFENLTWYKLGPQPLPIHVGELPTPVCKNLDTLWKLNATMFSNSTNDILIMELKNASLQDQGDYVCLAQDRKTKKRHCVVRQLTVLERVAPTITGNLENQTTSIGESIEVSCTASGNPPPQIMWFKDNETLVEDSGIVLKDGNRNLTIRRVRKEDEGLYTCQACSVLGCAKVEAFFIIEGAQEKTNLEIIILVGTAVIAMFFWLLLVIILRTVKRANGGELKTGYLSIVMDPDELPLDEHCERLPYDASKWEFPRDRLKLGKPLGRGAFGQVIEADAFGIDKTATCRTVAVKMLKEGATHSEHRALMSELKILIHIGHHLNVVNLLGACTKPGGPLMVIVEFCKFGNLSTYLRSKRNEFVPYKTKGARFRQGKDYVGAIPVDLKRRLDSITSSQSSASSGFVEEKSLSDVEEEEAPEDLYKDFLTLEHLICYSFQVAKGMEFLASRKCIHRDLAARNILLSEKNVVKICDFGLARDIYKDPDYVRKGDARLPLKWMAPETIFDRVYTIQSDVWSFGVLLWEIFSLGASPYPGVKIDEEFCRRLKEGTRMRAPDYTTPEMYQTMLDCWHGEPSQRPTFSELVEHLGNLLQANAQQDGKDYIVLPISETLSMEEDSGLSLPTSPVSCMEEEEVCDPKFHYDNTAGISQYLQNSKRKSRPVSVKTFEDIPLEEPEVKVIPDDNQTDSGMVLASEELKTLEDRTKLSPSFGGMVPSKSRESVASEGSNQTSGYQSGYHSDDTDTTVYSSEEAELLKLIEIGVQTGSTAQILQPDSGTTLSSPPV
Kind of test: Biochemical FLK-1 assay (flk-1 autophosphorylation ELISA). The conditions noted are these: read-out: bio FLK1 IC50 (μM) % if inhibition at 100. The protocol:
This assay evaluates flk-1 autophosphorylation activity in vitro using ELISA.
Materials And Reagents • 1. 15 cm tissue culture dishes • 2. Flk-1/NIH cells: NIH fibroblast line over-expressing human flk-1clone 3 (SUGEN, Inc., obtained from MPI, Martinsried, Germany). • 3. Growth medium: DMEM plus heat inactivated 10% FBS and 2 mM Glutamine (Gibco-BRL). • 4. Starvation medium: DMEM plus 0.5% heat-inactivated FBS, 2 mM Glutamine (Gibco-BRL). • 5. […] L4 or E38 monoclonal antibody specific for flk-1, Purified by Protein-A agarose affinity chromatography (SUGEN, Inc.). • 7. PBS (Dulbecco's Phosphate-Buffered Saline) Gibco Cat. No. 450-1300EB). • 8. HNTG (see BIOCHEMICAL FGFR for preparation). • 9. Pierce BCA protein determination kit. • 10. Blocking buffer • 11. TBST (pH 7.0) • 12. Kinase Buffer • 13. Kinase Stop Solution: 200 mM EDTA. • 14. […] AB kit (Vector Laboratories Cat. No. PK 4000). • 16. DMSO • 17. NUNC 96-well V bottom polypropylene plates (Applied Scientific Cat. No. AS-72092). • 18. Turbo-TMB (Pierce). • 19. Turbo-TMB stop solution: 1 M H2SO4. • 20. ATP (Sigma Cat. No. A-7699). • 21. 20% DMSO in TBS (pH 7.0). Procedure
Cell Growth and Lysate Preparation. • 1. Seed cell into growth medium and grow for 2-3 days to 90-100% confluency at 37° C. and 5% CO2.
2. Remove the medium and wash the cells twice with PBS. Lyse with HNTG lysis buffer. Collect all lysates and vortex mix them for 20-30 seconds. • 3. Remove insoluble material by centrifugation (5-10 min at about 10,000 ×g). • 4. Determine the protein concentration using BCA kit. • 5. Partition lysate into 1 mg aliquots, store at −80° C.
Assay Procedure • 1. Coat Corning 96-well ELISA plates with 2 μg/well purified L4 (or E 38) in 100 μl of PBS. Store overnight at […] • 2. Remove unbound proteins from wells by inverting the plate to remove the liquid. Wash one time with dH2O, pat plate on paper towel to remove excess liquid. • 3. Block plates with 150 μl blocking buffer per well. Incubate for 45-60 minutes with shaking at 4° C. • 4. Remove the blocking buffer and wash the ELISA plate three times with dH2O and one time with TBST. Pat plate on paper towel to remove excess liquid. • 5. Dilute lysate in PBS to give final concentration of 50 μg/100 μl. Add 100 μl of diluted lysate to each well. Incubate with shaking at 4° C. overnight. • 6. Remove unbound proteins from wells by inverting the plate. Wash as in step 4. • 7. Add 80 μl of kinase buffer to wells (90 μl to negative control wells). • 8. Dilute test compounds (normally 10-fold) into wells of a polypropylene plate containing 20% DMSO in TBS. • 9. Add 10 μl of the diluted compounds to the ELISA wells containing immobilized flk-1 and shake. Control wells receive no compounds. • 10. From stock 1 mM ATP, prepare 0.3 mM ATP solution in dH2O (alternatively, kinase buffer may be used). • 11. Add 10 μl of 0.3 mM ATP to all wells except the negative controls. Incubate for 60 min. at room temperature with shaking. • 12. After 1 hr stop the kinase reaction by adding 11 μl 200 mM EDTA. Shake for 1-2 min. • 13. Wash the ELISA plate 4 times with dH2O and twice with TBST. • 14. Add 100 μl of 1:5000 biotinylated 4G10:TBST to all wells. Incubate 45 min with shaking at room temperature. • 15. While the above is incubating, add 50 μl of solutions A & B from the ABC kit to 10 ml of TBST. These solutions must be combined approximately 30 min prior to use. • 16. Wash plates as in step 4. • 17. Add 100 μl of the preformed A & B complex to all wells. Incubate 30 min with shaking at room temperature. • 18. Wash plates as in step 4. • 19. Add 100 μl turbo-TMB. Shake at room temperature for 10-15 min. • 20. When the color in the positive control wells reaches an absorbance of about 0.35-0.4, stop the reaction with 100 μl of turbo-TMB stop solution. • 21. Read plates on Dynatech MR7000 ELISA reader, test filter: 450 nM, reference filter: 410 nM.

In another test the target is T3, flkGST (Homo sapiens, UniProt P35968).
T3 construct: GST
T3 sequence (P35968 786-1356 limits assumed): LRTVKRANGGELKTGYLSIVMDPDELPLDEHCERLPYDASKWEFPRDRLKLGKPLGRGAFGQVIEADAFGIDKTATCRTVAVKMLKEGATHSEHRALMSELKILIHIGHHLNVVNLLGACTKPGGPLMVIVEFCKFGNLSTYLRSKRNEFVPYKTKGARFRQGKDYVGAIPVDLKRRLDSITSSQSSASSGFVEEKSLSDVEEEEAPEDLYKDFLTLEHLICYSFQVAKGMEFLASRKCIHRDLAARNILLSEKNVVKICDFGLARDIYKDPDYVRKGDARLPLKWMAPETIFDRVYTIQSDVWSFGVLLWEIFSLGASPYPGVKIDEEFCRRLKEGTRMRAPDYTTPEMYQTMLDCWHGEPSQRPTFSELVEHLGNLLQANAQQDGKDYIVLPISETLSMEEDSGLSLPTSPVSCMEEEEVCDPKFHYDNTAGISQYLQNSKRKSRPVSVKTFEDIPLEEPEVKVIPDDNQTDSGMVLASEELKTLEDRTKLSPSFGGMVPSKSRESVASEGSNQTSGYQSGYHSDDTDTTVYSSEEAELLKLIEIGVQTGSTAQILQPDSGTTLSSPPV
The experiment in a line: bio flkGST assay. The test is classed as biochemical.

T1 sequence (P09619 33-1106): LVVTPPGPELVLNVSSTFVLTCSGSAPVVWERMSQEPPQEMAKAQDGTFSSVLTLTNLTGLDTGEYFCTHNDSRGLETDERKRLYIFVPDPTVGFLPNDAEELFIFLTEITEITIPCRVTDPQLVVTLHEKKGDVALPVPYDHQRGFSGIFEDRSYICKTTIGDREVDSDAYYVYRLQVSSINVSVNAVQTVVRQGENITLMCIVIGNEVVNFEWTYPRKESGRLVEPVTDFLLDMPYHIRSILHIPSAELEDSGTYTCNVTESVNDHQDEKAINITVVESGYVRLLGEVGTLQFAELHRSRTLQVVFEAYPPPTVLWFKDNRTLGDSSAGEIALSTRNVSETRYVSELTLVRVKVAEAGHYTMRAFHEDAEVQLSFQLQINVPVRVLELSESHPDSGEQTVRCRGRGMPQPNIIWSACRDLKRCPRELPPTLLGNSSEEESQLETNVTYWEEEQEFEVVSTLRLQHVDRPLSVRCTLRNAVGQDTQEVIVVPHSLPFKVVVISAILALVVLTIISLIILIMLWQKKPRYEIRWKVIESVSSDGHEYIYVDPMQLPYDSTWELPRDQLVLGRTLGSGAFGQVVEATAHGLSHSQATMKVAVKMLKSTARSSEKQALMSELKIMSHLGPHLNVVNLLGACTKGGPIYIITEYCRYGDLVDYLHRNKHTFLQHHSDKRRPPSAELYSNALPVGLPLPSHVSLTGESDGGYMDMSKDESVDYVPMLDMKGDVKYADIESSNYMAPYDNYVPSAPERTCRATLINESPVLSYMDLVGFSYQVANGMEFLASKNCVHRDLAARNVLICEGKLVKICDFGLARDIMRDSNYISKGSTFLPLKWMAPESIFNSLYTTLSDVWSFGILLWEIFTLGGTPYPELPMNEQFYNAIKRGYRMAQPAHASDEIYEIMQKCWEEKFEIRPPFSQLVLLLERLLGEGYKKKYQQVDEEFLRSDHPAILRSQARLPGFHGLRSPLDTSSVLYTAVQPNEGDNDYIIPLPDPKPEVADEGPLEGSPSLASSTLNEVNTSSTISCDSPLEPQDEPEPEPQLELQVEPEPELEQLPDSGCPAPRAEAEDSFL

The term IC50 denotes the point on the concentration scale where inhibition reaches its midpoint. Regarding `Nc1ccc2c(c1)/C(=C/c1cc3ccccc3[nH]1)C(=O)N2` [Example 160, 5-Amino-3-(1H-indol-2-ylmethylene)-1,3-dihydro-indol-2-one], the IC50 at PDGFR-β stood at 2.72 µM; in test [1], 5.27 µM; at human flk-1 it was 1.53 µM; at flkGST, 0.12 µM.
With `O=C1Nc2ccc(C(=O)O)cc2/C1=C/c1cc2ccccc2[nH]1` [Example 161, 3-(-1H-Indol-2-ylmethylene)-2-oxo-2,3-dihydro-1H-indole-5-carboxylic acid], the IC50 on PDGFR-β is 25.1 µM; in test [1], more than 20 µM; on human flk-1, 2.1 µM; at flkGST, less than 0.008 µM.
As to `Cc1c(/C=C2\C(=O)Nc3ccc(Br)cc32)[nH]c2ccccc12` [Example 169, 5-bromo-3-(3-methyl-1H-indol-2-ylmethylene)-1,3-dihydro-indol-2-one], the IC50 was more than 100 µM on PDGFR-β, more than 20 µM in test [1] and 15.8 µM at human flk-1.
`Cc1cccc2c1/C(=C/c1[nH]c3ccccc3c1C)C(=O)N2` [Example 170, 4-Methyl-3-(3-methyl-1H-indol-2-ylmethylene)-1,3-dihydroindol-2-one]: the values for the IC50 (on PDGFR-β; in test [1]; at human flk-1) were more than 100 µM, more than 20 µM and 10.7 µM, respectively.
For the compound `COc1ccccc1-c1ccc2c(c1)NC(=O)/C2=C\c1[nH]c2c(c1CCC(=O)O)CCCC2` [Example 207, 3-{2-[6-(2-Methoxyphenyl)-2-oxo-1,2-dihydro-indol-3-ylidenemethyl]-4,5,6,7-tetrahydro-1H-indol-3-yl}-propionic acid], the IC50 at PDGFR-β amounted to 0.87 µM; in test [1], 7.7 µM; at human flk-1 it was 2.72 µM; against flkGST, 1.5 µM.
